In patent US5278045A, “Method and compositions to screen compounds for enhancement of the cholinergic, dopaminergic and serotonergic function” (Du Pont Merck Pharmaceutical Company, priority 1990, dated 1994):
Where no end group is shown, it is not given here.

These compounds were tested on DuP 996 binding protein (assay: Specificity of the DuP 996 binding protein (displacement of tritiated DuP 996 by pharmacological standards)). Conditions: not given.
Parameters: species or system rat

Compound | ability to displace tritiated DuP 996 binding from the binding protein
CN1C(=O)CN=C(c2ccccc2)c2cc(Cl)ccc21 [diazepam] | None of these pharmacological standards was able to displace
COc1ccc(CCN(C)CCCC(C#N)(c2ccc(OC)c(OC)c2)C(C)C)cc1OC (stereo not shown) [verapamil] | None of these pharmacological standards was able to displace
CN1[C@@H]2CC[C@H]1C[C@@H](OC(=O)C(CO)c1ccccc1)C2 (stereo partly shown) [atropine] | None of these pharmacological standards was able to displace
CN1CCCC1c1cccnc1 (stereo not shown) [nicotine] | None of these pharmacological standards was able to displace

Same assay, conditions: receptor and ion channel ligands and neuropeptides against 10 nM tritiated DuP 996

Compound | ability to displace tritiated DuP 996 binding from the binding protein
O=C1C[C@@H]2OCC=C3CN4CC[C@]56c7ccccc7N1[C@H]5[C@H]2[C@H]3C[C@H]46 [strychnine] | None of these pharmacological standards was able to displace
CC(N)Cc1ccccc1 (stereo not shown) [amphetamine] | None of these pharmacological standards was able to displace
neurotensin 8-13 | None of these pharmacological standards was able to displace
NC(=O)CN1CCCC1=O [piracetam] | None of these pharmacological standards was able to displace
ACTH 1-24: pharmacological standard | None of these pharmacological standards was able to displace
3,4-aminopyridine | None of these pharmacological standards was able to displace
neurokinin B | None of these pharmacological standards was able to displace
veratidine | None of these pharmacological standards was able to displace
COC(=O)[C@@H]1[C@H]2C[C@H]3c4[nH]c5ccccc5c4CCN3C[C@@H]2CC[C@@H]1O [yohimbine] | None of these pharmacological standards was able to displace
c1ccc(C2(N3CCCCC3)CCCCC2)cc1 [phencyclidine] | None of these pharmacological standards was able to displace
cholecystokinin | None of these pharmacological standards was able to displace
CN/C(=N/CCSCc1nc[nH]c1C)NC#N [cimetidine] | None of these pharmacological standards was able to displace
CN1CCN2c3ccccc3Cc3ccccc3C2C1 (stereo not shown) [mianserin] | None of these pharmacological standards was able to displace
Nc1ncnc2c1ncn2[C@@H]1O[C@H](CO)[C@@H](O)[C@H]1O [adenosine] | None of these pharmacological standards was able to displace
CN[C@H](CC(=O)O)C(=O)O [N-methyl-D-aspartic acid] | None of these pharmacological standards was able to displace
substance P | None of these pharmacological standards was able to displace
C=CCN1CCC2(C)c3cc(O)ccc3CC1C2C (single isomer, unassigned; (+)) [(+)-SKF 10,047] | None of these pharmacological standards was able to displace
CN(C)CCC=C1c2ccccc2CCc2ccccc21 [amitriptyline] | None of these pharmacological standards was able to displace
angiotensin III | None of these pharmacological standards was able to displace
C1CCc2nnnn2CC1 [pentylenetetrazol] | None of these pharmacological standards was able to displace
Cn1c(=O)c2c(ncn2C)n(C)c1=O [caffeine] | None of these pharmacological standards was able to displace
LHRH: pharmacological standard | None of these pharmacological standards was able to displace
COc1ccc(CN(CCN(C)C)c2ccccn2)cc1 [pyrilamine] | None of these pharmacological standards was able to displace
O=C(CCCN1CCC(O)(c2ccc(Cl)cc2)CC1)c1ccc(F)cc1 [haloperidol] | None of these pharmacological standards was able to displace
CC(C)NCC(O)c1ccc(O)c(O)c1 (stereo not shown) [isoproterenol] | None of these pharmacological standards was able to displace
NC[C@H](O)c1ccc(O)c(O)c1 [norepinephrine] | None of these pharmacological standards was able to displace
C=CCN1CC[C@]23c4c5ccc(O)c4O[C@H]2C(=O)CC[C@@]3(O)[C@H]1C5 [naloxone] | None of these pharmacological standards was able to displace
RPPGFSPFR [bradykinin] | None of these pharmacological standards was able to displace
neurokinin A | None of these pharmacological standards was able to displace
NCCCC(=O)O [GABA] | None of these pharmacological standards was able to displace
